# Measured values as given in patent publication US20220306695A1, “COMPSTATIN ANALOGUES AND THEIR MEDICAL USES” (priority 2019, published 2022).
# Where two headings read alike, the source gives them in different places. Starred links: 1 amine or outer side, 2 acyl side, 3 side chain; linkers in the order of their positions; H or OH if unused. Positions of bridges follow the written chain, without caps; N, C: chain ends. Non-standard residues stand in square brackets, D forms with d. Residues, ends and D or L forms follow the SMILES beside them. Groups on a side chain read outwards from the residue. *: point of attachment. Trp(1-Me) = Cn1cc(C[C@H](N)C(=O)O)c2ccccc21; C18 diacid = O=C(O)CCCCCCCCCCCCCCCCC(=O)*; γGlu = O=C(O)[C@H](CCC(=O)[*:2])N[*:1]; Sar = CNCC(=O)O
# Legend:
# [1] = tested on: classical complement pathway; assay: In vitro haemolysis assay (inhibition of classical complement pathway); type: cell-based, human
# Description: Method The in vitro effect of test compounds was assessed by measuring their inhibitory effect of the classical complement pathway in a haemolysis assay. Briefly, test compounds and reference compounds were dissolved in DMSO and diluted in Tris/Casein Assay Buffer (10 mM Tris, 145 mM NaCl, 0.5 mM MgCl2, 0.15 mM CaCl2, and 0.1% W/V Casein, adjusted to pH 7.4) as 9-point serial dilutions in a 96 well plate. Sensitized sheep red blood cells (RBC) coated with rabbit anti-sheep erythrocyte antiserum (Complement Technology, Inc., TX, USA) were washed in Tris/Casein Assay Buffer. 50 μL from each well of diluted compound was added to a 96-well plate containing 50 μL diluted human serum (Complement Technology, Inc., TX, USA) and incubated for 15 minutes at room temperature. The serum dilution factor was optimized for every serum batch to obtain 70-90% of maximal haemolysis using the protocol. Then 50 μL sensitized sheep red blood cells were added to all wells ([…] per well). After 30 minutes of incubation at 37° C. with gentle agitation, the reaction was stopped by addition of 50 μL Tris STOP Buffer per well (10 mM EDTA, 10 mM Tris, 145 mM NaCl adjusted to pH 7.4). The RBCs were then removed by centrifugation and the resulting supernatant measured for hemolysis by absorbance at 405 nm. The response was normalized relative to a positive and negative control (vehicle) to calculate the IC50 from the concentration response curve using the 4-parameter logistic (4PL) nonlinear model for curve fitting.
# [2] = Solubility test at 10 mg/mL (visual inspection and light scattering); type: physicochemical; conditions: for Solubility, Condition 1 Acetate pH 4: 10 mg/mL compound in 100 mM acetate pH 4; for Solubility, Condition 2 Acetate pH 5: 10 mg/mL compound in 100 mM acetate pH 5; for Solubility, Condition 3 Phosphate pH 6: 10 mg/mL compound in 100 mM phosphate pH 6; for Solubility, Condition 4 Phosphate pH 7: 10 mg/mL compound in 100 mM phosphate pH 7; for Solubility, Condition 5 Phosphate pH 7.5: 10 mg/mL compound in 100 mM phosphate pH 7.5
# Description: The solubility of compounds was assessed by measuring light scattering over a pH interval from pH 4 to pH 7.5.
# Compounds were dissolved in a stock solution of 20 mg/mL in H2O at pH 2.5 or pH 10.
# These stock solutions were diluted 1:1 with 200 mM buffered solution to reach a final solution of 10 mg/mL compound in 100 mM buffer. The 5 investigated conditions were (1) acetate pH 4.0, (2) acetate pH 5.0, (3) phosphate pH 6.0, (4) phosphate pH 7 and (5) phosphate pH 7.5.
# Visual inspection included manually checking the 96 well plate for wells that are clear or non-clear. In addition to this a picture of the 96 well plate is taken.
# Absorbance was measured at four wavelengths: 280 nm, 325 nm, 340 nm and 360 nm in an UV transparent 96 well microplate in a SpectraMax 190 microplate reader (Molecular Devices).
# The criteria for this was a combination of visual inspection and light scattering not exceeding 0.1 AU, where values below 0.1 AU are good in visually clear samples. […]
# [3] = Table 4, valine 3 versus isoleucine 3 pairs, read-out: CP hemolysis IC50
# [4] = Table 3, human serum, sensitized sheep red blood cells, read-out: IC50[nM], in vitro analysis of inhibition of hemolysis
compound,measurement,setting,value
"CC[C@H](C)[C@H](NC(C)=O)C(=O)N[C@H]1CSSC[C@@H](C(=O)N[C@H](C(N)=O)[C@@H](C)O)NC(=O)[C@H](CCCNC(=N)N)NC(=O)[C@H](Cc2c[nH]cn2)NC(=O)[C@H](CCC(=O)O)NC(=O)CNC(=O)[C@H](Cc2c[nH]c3ccccc23)NC(=O)[C@H](CC(=O)O)NC(=O)[C@H](CCC(N)=O)NC(=O)[C@H](Cc2c[nH]c3ccccc23)NC(=O)[C@H](C(C)C)NC1=O [A, reference compound] (Ac-ICVWQDWGEHRCT-NH2; disulfide 2-12)",IC50,[1]; [3],0.35 µM
same,IC50,"[1]; Table 5, different residues at position 3 of Ac-IC(1)XWQDWGEHRC(1)T-NH2, read-out: IC50, CP hemolysis",0.35 µM
"CC[C@H](C)[C@H](NC(C)=O)C(=O)N[C@H]1CSSC[C@@H](C(=O)N[C@H](C(N)=O)[C@@H](C)O)NC(=O)[C@H](CCCNC(=N)N)NC(=O)[C@H](Cc2c[nH]cn2)NC(=O)[C@H](Cc2c[nH]cn2)NC(=O)CNC(=O)[C@H](Cc2c[nH]c3ccccc23)NC(=O)[C@H](CC(=O)O)NC(=O)[C@H](CCC(N)=O)NC(=O)[C@H](C(C)C)NC(=O)[C@H](C(C)C)NC1=O [Ac-compstatin, reference compound]",IC50,"[1]; Table 3, cells that print μM, read-out: IC50, in vitro analysis of inhibition of hemolysis",> 5 µM
"CC[C@H](C)[C@H](NC(C)=O)C(=O)N[C@H]1CSSC[C@@H](C(=O)N[C@H](C(N)=O)[C@@H](C)O)NC(=O)[C@H](CCCNC(=N)N)NC(=O)[C@H](Cc2c[nH]cn2)NC(=O)[C@H](CO)NC(=O)CNC(=O)[C@H](Cc2c[nH]c3ccccc23)NC(=O)[C@H](CC(=O)O)NC(=O)[C@H](CCC(N)=O)NC(=O)[C@H](Cc2c[nH]c3ccccc23)NC(=O)[C@H](C(C)C)NC1=O [B, reference compound] (Ac-ICVWQDWGSHRCT-NH2; disulfide 2-12)",IC50,[1]; [3],0.36 µM
"CC[C@H](C)[C@H](NC(=O)[C@H](C)NC(=O)[C@H](CO)NC(=O)[C@H](CO)NC(=O)[C@H](CCC(=O)O)NC(C)=O)C(=O)N[C@H]1CSSC[C@@H](C(=O)N[C@H](C(N)=O)[C@@H](C)O)NC(=O)[C@H](CCCNC(=N)N)NC(=O)[C@H](Cc2c[nH]cn2)NC(=O)[C@H](CCC(=O)O)NC(=O)CNC(=O)[C@H](Cc2c[nH]c3ccccc23)NC(=O)[C@H](CC(=O)O)NC(=O)[C@H](CCC(N)=O)NC(=O)[C@H](Cc2c[nH]c3ccccc23)NC(=O)[C@H](C(C)C)NC1=O [C, reference compound] (Ac-ESSAICVWQDWGEHRCT-NH2; disulfide 6-16)",IC50,[1]; [3],0.3 µM
"CC[C@H](C)[C@H](NC(C)=O)C(=O)N[C@H]1CSSC[C@@H](C(=O)N[C@H](C(N)=O)[C@@H](C)O)NC(=O)[C@H](CCCNC(=N)N)NC(=O)[C@H](Cc2c[nH]cn2)NC(=O)[C@H](C)NC(=O)CNC(=O)[C@H](Cc2c[nH]c3ccccc23)NC(=O)[C@H](CC(=O)O)NC(=O)[C@H](CCC(N)=O)NC(=O)[C@H](Cc2c[nH]c3ccccc23)NC(=O)[C@H](C(C)C)NC1=O [Compound 4W9A, reference compound]",IC50,"[1]; Table 2, human serum, sensitized sheep red blood cells, read-out: CP hemolysis IC50",0.25 µM
same,IC50,[1]; [4],< 0.5 µM
CC[C@H](C)[C@H](NC(C)=O)C(=O)N[C@H]1CSSC[C@@H](C(=O)N[C@H](C(N)=O)[C@@H](C)O)NC(=O)[C@H](CCCNC(=N)N)NC(=O)[C@H](Cc2c[nH]cn2)NC(=O)[C@H](CCCCN)NC(=O)CNC(=O)[C@H](Cc2c[nH]c3ccccc23)NC(=O)[C@H](CC(=O)O)NC(=O)[C@H](CCC(N)=O)NC(=O)[C@H](Cc2c[nH]c3ccccc23)NC(=O)[C@H]([C@@H](C)CC)NC1=O [Compound 5] (Ac-ICIWQDWGKHRCT-NH2; disulfide 2-12),IC50,[1]; [4],< 0.25 µM
CC[C@H](C)[C@H](NC(C)=O)C(=O)N[C@H]1CSSC[C@@H](C(=O)N[C@H](C(N)=O)[C@@H](C)O)NC(=O)[C@H](CCCNC(=N)N)NC(=O)[C@H](Cc2c[nH]cn2)NC(=O)[C@H](CO)NC(=O)CNC(=O)[C@H](Cc2c[nH]c3ccccc23)NC(=O)[C@H](CC(=O)O)NC(=O)[C@H](CCC(N)=O)NC(=O)[C@H](Cc2c[nH]c3ccccc23)NC(=O)[C@H]([C@@H](C)CC)NC1=O [Compound 6] (Ac-ICIWQDWGSHRCT-NH2; disulfide 2-12),IC50,[1]; [4],< 0.25 µM
same,IC50,[1]; [3],0.14 µM
CC[C@H](C)[C@H](NC(C)=O)C(=O)N[C@H]1CSSC[C@@H](C(=O)N[C@H](C(N)=O)[C@@H](C)O)NC(=O)[C@H](CCCNC(=N)N)NC(=O)[C@H](Cc2c[nH]cn2)NC(=O)[C@H](CCC(=O)O)NC(=O)CNC(=O)[C@H](Cc2c[nH]c3ccccc23)NC(=O)[C@H](CCCCN)NC(=O)[C@H](CCC(N)=O)NC(=O)[C@H](Cc2c[nH]c3ccccc23)NC(=O)[C@H]([C@@H](C)CC)NC1=O [Compound 7] (Ac-ICIWQKWGEHRCT-NH2; disulfide 2-12),IC50,[1]; [4],< 1 µM
CC[C@H](C)[C@@H]1NC(=O)[C@@H](NC(=O)[C@H](Cc2ccc(O)cc2)NC(=O)[C@H](C)NC(=O)[C@H](CO)NC(C)=O)CSSC[C@@H](C(=O)N(C)CC(=O)N[C@@H](CCC(=O)O)C(=O)N[C@@H](CCCCNC(=O)CC[C@H](NC(=O)CNC(=O)[C@H](CCCCN)NC(=O)CC[C@H](NC(=O)CCCCCCCCCCCCCCCCC(=O)O)C(=O)O)C(=O)O)C(N)=O)NC(=O)[C@H](CCCNC(=N)N)NC(=O)[C@H](Cc2c[nH]cn2)NC(=O)[C@H](CCC(=O)O)NC(=O)CNC(=O)[C@H](Cc2c[nH]c3ccccc23)NC(=O)[C@H](CC(=O)O)NC(=O)[C@H](CCC(N)=O)NC(=O)[C@H](Cc2cn(C)c3ccccc23)NC1=O [Compound 105] (Ac-SAYCI[Trp(1-Me)]QDWGEHRC[Sar]EK([γGlu-Gly-Lys-γGlu-C18 diacid])-NH2; disulfide 4-14),"Solubility, Condition 1 Acetate pH 4",[2],"− (denotes lack of solubility at the given condition, as UV absorbance at 340 nm exceeds 0.1 AU and/or it is visibly turbid or contains particles.)"
same,"Solubility, Condition 2 Acetate pH 5",[2],"− (denotes lack of solubility at the given condition, as UV absorbance at 340 nm exceeds 0.1 AU and/or it is visibly turbid or contains particles.)"
same,"Solubility, Condition 3 Phosphate pH 6",[2],"+ (denotes solubility at the given condition, as determined by UV absorbance being less than 0.1 AU at 340 nm and the sample being clear when manually inspected.)"
same,"Solubility, Condition 4 Phosphate pH 7",[2],"+ (denotes solubility at the given condition, as determined by UV absorbance being less than 0.1 AU at 340 nm and the sample being clear when manually inspected.)"
same,"Solubility, Condition 5 Phosphate pH 7.5",[2],"+ (denotes solubility at the given condition, as determined by UV absorbance being less than 0.1 AU at 340 nm and the sample being clear when manually inspected.)"
CC[C@H](C)[C@@H]1NC(=O)[C@@H](NC(=O)[C@H](Cc2ccc(O)cc2)NC(=O)[C@H](CCC(=O)O)NC(=O)[C@H](CO)NC(C)=O)CSSC[C@@H](C(=O)N(C)CC(=O)N[C@@H](CCC(=O)O)C(=O)NCC(=O)N[C@@H](CCC(=O)O)C(=O)N[C@@H](CCCCNC(=O)CC[C@H](NC(=O)[C@H](CCCCN)NC(=O)CC[C@H](NC(=O)CCCCCCCCCCCCCCCCC(=O)O)C(=O)O)C(=O)O)C(N)=O)NC(=O)[C@H](CCCNC(=N)N)NC(=O)[C@H](Cc2c[nH]cn2)NC(=O)[C@H](CCC(=O)O)NC(=O)CNC(=O)[C@H](Cc2c[nH]c3ccccc23)NC(=O)[C@H](CC(=O)O)NC(=O)[C@H](CCC(N)=O)NC(=O)[C@H](Cc2cn(C)c3ccccc23)NC1=O [Compound 116] (Ac-SEYCI[Trp(1-Me)]QDWGEHRC[Sar]EGEK([γGlu-Lys-γGlu-C18 diacid])-NH2; disulfide 4-14),"Solubility, Condition 1 Acetate pH 4",[2],"− (denotes lack of solubility at the given condition, as UV absorbance at 340 nm exceeds 0.1 AU and/or it is visibly turbid or contains particles.)"
same,"Solubility, Condition 2 Acetate pH 5",[2],"− (denotes lack of solubility at the given condition, as UV absorbance at 340 nm exceeds 0.1 AU and/or it is visibly turbid or contains particles.)"
same,"Solubility, Condition 3 Phosphate pH 6",[2],"+ (denotes solubility at the given condition, as determined by UV absorbance being less than 0.1 AU at 340 nm and the sample being clear when manually inspected.)"
same,"Solubility, Condition 4 Phosphate pH 7",[2],"+ (denotes solubility at the given condition, as determined by UV absorbance being less than 0.1 AU at 340 nm and the sample being clear when manually inspected.)"
same,"Solubility, Condition 5 Phosphate pH 7.5",[2],"+ (denotes solubility at the given condition, as determined by UV absorbance being less than 0.1 AU at 340 nm and the sample being clear when manually inspected.)"
